Paper PMC3742645, “The Effect of Polyhydroxylated Alkaloids on Maltase-Glucoamylase” (PLoS ONE, 2013)

Target: T1, ntMGAM (purchased as maltase-glucoamylase from rice, EC 3.2.1.20, Sigma G9259)
T1 construct: gene Os06g0675700; commercial native rice alpha-glucosidase; no human protein source or expression described
Assay: NMR transverse relaxation (CPMG) titration
Assay type: binding
Details: pH 6.8, 310 K, 10 mM sodium phosphate, 10% D2O, protein 18 μM; signal H-9; unit printed as M^-1 under a Kd heading
Text: NMR transverse relaxation (CPMG) titration on ntMGAM (purchased as maltase-glucoamylase from rice, EC 3.2.1.20, Sigma G9259)

K d(M^-1): (5.4±0.1)×10^−5 M^−1
SMILES: C[C@H]1O[C@H](O[C@H]2[C@H](O)[C@@H](O)[C@@H](O[C@H]3[C@H](O)[C@@H](O)C(O)O[C@@H]3CO)O[C@@H]2CO)[C@H](O)[C@@H](O)[C@@H]1N[C@H]1C=C(CO)[C@@H](O)[C@H](O)[C@H]1O (stereo partly shown) [acarbose]
